What all share (test): relative viability (nuclei count vs DMSO), 5 days (fraction); higher = more cells survive
Compound in the test “Metformin + Luminespib”: CN(C)C(=N)NC(=N)N [Metformin] + CCNC(=O)c1noc(-c2cc(C(C)C)c(O)cc2O)c1-c1ccc(CN2CCOCC2)cc1 [Luminespib] (partner 0.01 µM)
An outline of the steps:
(§1)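 Relative viability is defined as nuclei in treated wells over nuclei in vehicle wells. Duplicate plates were run and medians reported. Lung cancer cell lines in 1536-well plates were dosed by pin tool one day after seeding, with one drug or with a fixed anchor-drug dose plus five library-drug doses (not always all listed) in √10 steps, and nuclei were counted after 5 days.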

Compound in the test “Metformin + Crizotinib”: CN(C)C(=N)NC(=N)N [Metformin] + C[C@@H](Oc1cc(-c2cnn(C3CCNCC3)c2)cnc1N)c1c(Cl)ccc(F)c1Cl [Crizotinib] (partner 1 µM)
Put shortly:
as §1

Compound in the test “Metformin + Pemetrexed”: CN(C)C(=N)NC(=N)N [Metformin] + Nc1nc2[nH]cc(CCc3ccc(C(=O)N[C@@H](CCC(=O)O)C(=O)O)cc3)c2c(=O)[nH]1 [Pemetrexed] (partner 0.2 µM)
An outline of the steps:
as §1

Compound in the test “Apatinib + OSI-027”: N#CC1(c2ccc(NC(=O)c3cccnc3NCc3ccncc3)cc2)CCCC1 [Apatinib] + COc1cccc2cc(-c3nc([C@H]4CC[C@H](C(=O)O)CC4)n4ncnc(N)c34)[nH]c12 [OSI-027] (partner 0.5 µM)
An outline of the steps:
as §1

Take NCI-H358: the relative viability amounted to 0.575 with Metformin + Luminespib (first compound 10 µM); 0.677 in the test with Metformin + Luminespib (first compound 31.62 µM); 0.555 with Metformin + Luminespib (first compound 100 µM); 0.211 with Metformin + Luminespib (first compound 316.23 µM); 0.364 with Metformin + Luminespib (first compound 1000 µM); 0.551 with Metformin + Crizotinib (first compound 10 µM). Besides, the relative viability worked out at 0.448 in the test with Metformin + Crizotinib (first compound 31.62 µM); 0.587 with Metformin + Crizotinib (first compound 100 µM); 0.311 in the test with Metformin + Crizotinib (first compound 316.23 µM); 0.507 with Metformin + Crizotinib (first compound 1000 µM); 0.156 in the test with Metformin + Pemetrexed (first compound 10 µM); 0.182 with Metformin + Pemetrexed (first compound 31.62 µM). Moreover, the relative viability in the test with Metformin + Pemetrexed (first compound 100 µM) came out at 0.146; with Metformin + Pemetrexed (first compound 316.23 µM), 0.162; with Metformin + Pemetrexed (first compound 1000 µM), 0.179; with Apatinib + OSI-027 (first compound 0.08 µM), 0.898; in the test with Apatinib + OSI-027 (first compound 0.253 µM) it was 0.789; with Apatinib + OSI-027 (first compound 0.8 µM), 0.772. Also, the relative viability amounted to 0.706 with Apatinib + OSI-027 (first compound 2.53 µM) and 0.692 with Apatinib + OSI-027 (first compound 8 µM).

Take NCI-H441: the relative viability with Metformin + Luminespib (first compound 31.62 µM) is 0.241; with Metformin + Luminespib (first compound 100 µM), 0.336; with Metformin + Luminespib (first compound 316.23 µM), 0.28; with Metformin + Luminespib (first compound 1000 µM), 0.373; with Metformin + Crizotinib (first compound 10 µM) it was 0.337; with Metformin + Crizotinib (first compound 100 µM) it was 0.638. The relative viability with Metformin + Crizotinib (first compound 316.23 µM) is 0.457; in the test with Metformin + Crizotinib (first compound 1000 µM), 0.655; in the test with Metformin + Pemetrexed (first compound 31.62 µM), 0.255; with Metformin + Pemetrexed (first compound 100 µM), 0.292; with Metformin + Pemetrexed (first compound 316.23 µM) it was 0.266; with Metformin + Pemetrexed (first compound 1000 µM), 0.264. Further, the relative viability amounted to 0.609 with Apatinib + OSI-027 (first compound 0.08 µM); 0.625 in the test with Apatinib + OSI-027 (first compound 0.253 µM); 0.541 with Apatinib + OSI-027 (first compound 0.8 µM); 0.436 in the test with Apatinib + OSI-027 (first compound 2.53 µM); 0.339 in the test with Apatinib + OSI-027 (first compound 8 µM).

For NCI-H460, the relative viability is 0.048 with Metformin + Luminespib (first compound 10 µM); 0.0359 in the test with Metformin + Luminespib (first compound 31.62 µM); 0.0322 with Metformin + Luminespib (first compound 100 µM); 0.0306 in the test with Metformin + Luminespib (first compound 316.23 µM); 0.0333 in the test with Metformin + Luminespib (first compound 1000 µM); 0.734 in the test with Metformin + Crizotinib (first compound 31.62 µM). The relative viability with Metformin + Crizotinib (first compound 100 µM) was 0.778; in the test with Metformin + Crizotinib (first compound 316.23 µM) it was 0.829; with Metformin + Crizotinib (first compound 1000 µM), 0.916; in the test with Metformin + Pemetrexed (first compound 31.62 µM), 0.0599; with Metformin + Pemetrexed (first compound 100 µM), 0.0625; with Metformin + Pemetrexed (first compound 316.23 µM) it was 0.0535. Moreover, the relative viability with Metformin + Pemetrexed (first compound 1000 µM) amounted to 0.0639; with Apatinib + OSI-027 (first compound 0.08 µM) it was 0.799; with Apatinib + OSI-027 (first compound 0.253 µM), 0.746; with Apatinib + OSI-027 (first compound 0.8 µM) it was 0.491; with Apatinib + OSI-027 (first compound 2.53 µM), 0.541; with Apatinib + OSI-027 (first compound 8 µM), 0.333.

For the cell line NCI-H520, the relative viability with Metformin + Luminespib (first compound 10 µM) is 0.265; with Metformin + Luminespib (first compound 31.62 µM), 0.224; with Metformin + Luminespib (first compound 100 µM), 0.211; in the test with Metformin + Luminespib (first compound 316.23 µM) it was 0.223; in the test with Metformin + Luminespib (first compound 1000 µM) it was 0.23; with Metformin + Crizotinib (first compound 10 µM), 0.804. In addition, the relative viability is 0.75 with Metformin + Crizotinib (first compound 31.62 µM); 0.803 in the test with Metformin + Crizotinib (first compound 100 µM); 0.752 with Metformin + Crizotinib (first compound 316.23 µM); 0.606 with Metformin + Crizotinib (first compound 1000 µM); 0.656 with Metformin + Pemetrexed (first compound 10 µM); 0.593 with Metformin + Pemetrexed (first compound 31.62 µM). Besides, the relative viability came to 0.688 with Metformin + Pemetrexed (first compound 100 µM); 0.657 with Metformin + Pemetrexed (first compound 316.23 µM); 0.689 with Metformin + Pemetrexed (first compound 1000 µM); 0.262 with Apatinib + OSI-027 (first compound 0.08 µM); 0.229 with Apatinib + OSI-027 (first compound 0.253 µM); 0.219 with Apatinib + OSI-027 (first compound 0.8 µM). For the same cell line, the relative viability is 0.25 with Apatinib + OSI-027 (first compound 2.53 µM) and 0.224 in the test with Apatinib + OSI-027 (first compound 8 µM).

Regarding NCI-H596, the relative viability with Metformin + Luminespib (first compound 10 µM) is 0.98; with Metformin + Luminespib (first compound 31.62 µM), 1.18; with Metformin + Luminespib (first compound 100 µM), 1.08; with Metformin + Luminespib (first compound 316.23 µM), 1.02; with Metformin + Luminespib (first compound 1000 µM) it was 1.06; with Metformin + Crizotinib (first compound 10 µM) it was 1.05. Further, the relative viability in the test with Metformin + Crizotinib (first compound 31.62 µM) is 1.17; with Metformin + Crizotinib (first compound 100 µM) it was 1.09; with Metformin + Crizotinib (first compound 316.23 µM), 1.11; with Metformin + Crizotinib (first compound 1000 µM), 1.17; in the test with Metformin + Pemetrexed (first compound 10 µM), 0.582; with Metformin + Pemetrexed (first compound 31.62 µM), 0.563. Besides, the relative viability with Metformin + Pemetrexed (first compound 100 µM) was found to be 0.546; in the test with Metformin + Pemetrexed (first compound 316.23 µM), 0.498; with Metformin + Pemetrexed (first compound 1000 µM) it was 0.539; with Apatinib + OSI-027 (first compound 0.08 µM) it was 0.795; in the test with Apatinib + OSI-027 (first compound 0.253 µM) it was 0.656; in the test with Apatinib + OSI-027 (first compound 0.8 µM) it was 0.653. Also, the relative viability in the test with Apatinib + OSI-027 (first compound 2.53 µM) amounted to 0.486; in the test with Apatinib + OSI-027 (first compound 8 µM), 0.545.

On to NCI-H647, for which the relative viability was 0.187 with Metformin + Luminespib (first compound 10 µM); 0.154 with Metformin + Luminespib (first compound 31.62 µM); 0.278 in the test with Metformin + Luminespib (first compound 100 µM); 0.16 with Metformin + Luminespib (first compound 316.23 µM); 0.113 in the test with Metformin + Luminespib (first compound 1000 µM); 0.982 with Metformin + Crizotinib (first compound 10 µM). Moreover, the relative viability was found to be 1.02 with Metformin + Crizotinib (first compound 31.62 µM); 0.955 with Metformin + Crizotinib (first compound 100 µM); 0.939 with Metformin + Crizotinib (first compound 316.23 µM); 0.942 with Metformin + Crizotinib (first compound 1000 µM); 0.127 with Metformin + Pemetrexed (first compound 10 µM); 0.137 with Metformin + Pemetrexed (first compound 31.62 µM). The relative viability stood at 0.16 with Metformin + Pemetrexed (first compound 100 µM); 0.146 with Metformin + Pemetrexed (first compound 316.23 µM); 0.148 with Metformin + Pemetrexed (first compound 1000 µM); 0.77 with Apatinib + OSI-027 (first compound 0.08 µM); 0.619 in the test with Apatinib + OSI-027 (first compound 0.253 µM); 0.576 in the test with Apatinib + OSI-027 (first compound 0.8 µM). Further, the results for the relative viability with Apatinib + OSI-027 (first compound 2.53 µM) and with Apatinib + OSI-027 (first compound 8 µM) were 0.593 and 0.528, respectively.

Turning to NCI-H650, the relative viability with Metformin + Luminespib (first compound 10 µM) amounted to 0.953; with Metformin + Luminespib (first compound 31.62 µM), 1.03; with Metformin + Luminespib (first compound 100 µM), 1.06; in the test with Metformin + Luminespib (first compound 316.23 µM), 0.92; with Metformin + Luminespib (first compound 1000 µM), 1.09; with Metformin + Crizotinib (first compound 10 µM), 0.709. In addition, the relative viability with Metformin + Crizotinib (first compound 31.62 µM) stood at 0.669; in the test with Metformin + Crizotinib (first compound 100 µM), 0.908; with Metformin + Crizotinib (first compound 316.23 µM), 0.709; with Metformin + Crizotinib (first compound 1000 µM), 0.862; with Metformin + Pemetrexed (first compound 10 µM), 0.846; in the test with Metformin + Pemetrexed (first compound 31.62 µM) it was 0.993. For the same cell line, the relative viability with Metformin + Pemetrexed (first compound 100 µM) amounted to 0.878; in the test with Metformin + Pemetrexed (first compound 316.23 µM), 0.941; in the test with Metformin + Pemetrexed (first compound 1000 µM), 1.1; with Apatinib + OSI-027 (first compound 0.08 µM), 0.493; with Apatinib + OSI-027 (first compound 0.253 µM), 0.491; with Apatinib + OSI-027 (first compound 0.8 µM), 0.446. The results for the relative viability with Apatinib + OSI-027 (first compound 2.53 µM) and with Apatinib + OSI-027 (first compound 8 µM) were 0.381 and 0.388, respectively.
